Measured values published in PMC6112376, “Comprehensive Analyses and Prioritization of Tox21 10K Chemicals Affecting Mitochondrial Function by in-Depth Mechanistic Studies” (Environmental Health Perspectives, 2018).
Counter-ions that a name gives are not always drawn. Like-named read-outs stand apart in the source and are kept apart here.

Legend:
HepG2 cells [1] = assay: cells; conditions: Homo sapiens; for Emax: HepG2, read-out: MMP assays efficacy (%) HepG2
HepG2 cells [2] = conditions: cited from earlier work
rat primary hepatocytes = assay: MMP assay in rat primary hepatocytes; conditions: for MMP assays IC50 (µM) Rat Hepatocytes / MMP assays efficacy (%) Rat Hepatocytes: mean ± SD of three experiments; for IC50: Rattus norvegicus, Hepatocyte
[3] = HepG2, read-out: MMP assays IC50 (µM) HepG2
[4] = read-out: MMP assays IC50 (µM) qHTS-HepG2
[5] = read-out: MMP assays IC50 (µM), qHTS-HepG2
[6] = read-out: MMP assays IC50 (µM) Rat Hepatocytes

Compound	IC50 (HepG2 cells [1]; [3]) [µM]	Emax (HepG2 cells [1]) [%]	MMP assays efficacy (%) qHTS-HepG2 (HepG2 cells [2]) [%]	IC50 (HepG2 cells [2]; [4]) [µM]	MMP assays IC50 (µM) Rat Hepatocytes (rat primary hepatocytes)	MMP assays efficacy (%) Rat Hepatocytes (rat primary hepatocytes)	IC50 (HepG2 cells [2]; [5]) [µM]	IC50 (rat primary hepatocytes; [6]) [µM]	IC50 (HepG2 cells [1]; HepG2, read-out: IC50 in HepG2 cells (MMP, tier-one retest)) [µM]	IC50 (rat primary hepatocytes; 1 h, read-out: IC50 in rat primary hepatocytes (MMP, tier-one retest)) [µM]
Nc1ccc2c(O)cc(S(=O)(=O)O)cc2c1	39.8	40	-55±5	27.3 ± 3.73	inactive	inactive				
C#C[C@]1(O)CC[C@H]2[C@@H]3CCC4=CC(=NO)CC[C@@H]4[C@H]3CC[C@@]21CC (mixture of isomers) [Norelgestromin]	19.4	121	-122±2			-55±21%	13.5 ± 6.64	13.4 ± 12.3		
CCc1ccc(O)c(C(C)(C)C)c1 [Compound 2-tert-Butyl-4-ethylphenol]	15.8	95	-103±6	11.3 ± 2.6	inactive	inactive				
C=C1/C(=C\C=C2/CCC[C@]3(C)[C@@H]([C@H](C)/C=C/[C@@H](O)C4CC4)CC[C@@H]23)C[C@@H](O)C[C@@H]1O [Calcipotriene]	21.8	124	-63±12	26 ± 3.89		-63±23%		17.3		
CCC(C)(C)c1ccc(CC(C)CN2C[C@@H](C)O[C@@H](C)C2)cc1 (some centres unmarked) [Amorolfine]	17.3	82	-63±11	21.6 ± 3.47	inactive	inactive				
O=C1c2ccccc2C(=O)C1(O)O [Ninhydrin]	56.2	85	-86±19		inactive	inactive	32 ± 9.69			
CC(=O)Oc1ccc2c(c1)CC[C@@H]1[C@@H]2CC[C@]2(C)[C@@H](O)CC[C@@H]12 [Estradiol acetate]	17.3	95	-85±4	9.08 ± 0.59	inactive	inactive				
Cc1c(Nc2ncccc2C(=O)O)cccc1C(F)(F)F [Flunixin meglumine]	7.4	83	-123±14			-107±11%	9.02	5.77 ± 4.59		
O=C(Nc1ncc([N+](=O)[O-])s1)c1cccs1 [Tenonitrozole]	0.56	99	-95±3				0.73 ± 0.12	0.68 ± 0.45		
Cc1ccc2c(c1)C(=O)c1ccccc1C2=O [Compound 2-Methylanthraquinone]	11.2	51	-77±13	6.33 ± 1.15		-36±2%		5.97 ± 0.49		
O=[N+]([O-])c1ccc(O)c2ncccc12 [Nitroxoline]	19.9	94	-80±8			-69±54%	9.22 ± 2.41	72.3 ± 39.1		
CC(C)=CCOc1ccc(/C=C/C(=O)c2ccc(OCC=C(C)C)cc2OCC(=O)O)cc1 [Sofalcone]	17.3	92	-118±8			-65±23%	24.6 ± 1.67	19.5 ± 2.25		
Nc1cc(Cl)c(O)c(Cl)c1 [4-Amino-2,6-dichlorophenol]	15.8	120	-97±9	17.2 ± 13.4		-57±8%		29.6 ± 27.8		
O=C1c2ccccc2C(=O)N1SC(Cl)(Cl)Cl [Folpet]	14.1	100	-107±6				8.25 ± 0.54	33.7 ± 20.2		
CCN(CC)c1ccc(N)cc1 [N,N-Diethylbenzene-1,4-diamine]	7.94	118	-103±16			-105±29%	49.9 ± 3.51	31.6		
Oc1c2ccccc2c2c3c(cccc13)N=N2 [SP600125]	1.55	105	-97±10			-82±45%	0.92 ± 0.14	21.1 ± 2.91		
CCC(=O)OCC(=O)[C@@]1(OC(=O)CC)[C@@H](C)C[C@H]2[C@@H]3CCC4=CC(=O)C=C[C@]4(C)[C@@]3(F)[C@@H](O)C[C@@]21C [Betamethasone dipropionate]	19.4	63	-118±9	25.6 ± 1.67	inactive	inactive				

Compound	IC50 (HepG2 cells [1]; [3]) [µM]	Emax (HepG2 cells [1]) [%]	MMP assays efficacy (%) qHTS-HepG2 (HepG2 cells [2]) [%]	IC50 (HepG2 cells [2]; [4]) [µM]	MMP assays IC50 (µM) Rat Hepatocytes (rat primary hepatocytes)	MMP assays efficacy (%) Rat Hepatocytes (rat primary hepatocytes)	IC50 (HepG2 cells [2]; [5]) [µM]	IC50 (rat primary hepatocytes; [6]) [µM]	IC50 (HepG2 cells [1]; HepG2, read-out: IC50 in HepG2 cells (MMP, tier-one retest)) [µM]	IC50 (rat primary hepatocytes; 1 h, read-out: IC50 in rat primary hepatocytes (MMP, tier-one retest)) [µM]
COc1ccc(C(=O)c2ccc(OC)cc2O)c(O)c1	12.6	109	-95±11	7.75 ± 1.8		-58±4%		29.8 ± 13.8		
CC(C)(C)C1=CC(=O)C=C(C(C)(C)C)C1=O	39.8	80	-73±22	18.6 ± 12.4	inactive	inactive				
Cc1cc(O)c(C(C)(C)C)cc1Sc1cc(C(C)(C)C)c(O)cc1C [4,4'-Thiobis(6-tert-butyl-m-cresol)]	3.16	115	-104±19	1.86 ± 1.18		-78±17%		24.8 ± 11.8		
CC(C)(C)c1cc(/C=C2\SC(N)=NC2=O)cc(C(C)(C)C)c1O [Darbufelone mesylate]	5.62	102	-110±13	11.7 ± 2.02		-105±22%		7.15 ± 5.41		
CC(C)(c1ccc(O)cc1)c1ccc(O)cc1 [Bisphenol A]	15.8	111	-122±14	14 ± 6.29		-59±20%		37.6 ± 3.06		
CNc1ncnc2nc[nH]c12 [(N-6)-Methyladenine]	6.31	56	-65±7	5.98 ± 5.84	inactive	inactive				
CC(C)C(=O)OCC(=O)[C@@]12O[C@H](C3CCCCC3)O[C@@H]1C[C@H]1[C@@H]3CCC4=CC(=O)C=C[C@]4(C)[C@H]3[C@@H](O)C[C@@]12C [Ciclesonide]	15.5	103		7.91 ± 1.38	inactive	inactive				
N#CSCSc1nc2ccccc2s1 [2-(Thiocyanomethylthio)benzothiazole]	56.2	73	-85±16	33.1 ± 4.58		-136±65%		30.5 ± 26.4		
C=C1CC[C@H](O)C/C1=C/C=C1\CCC[C@]2(C)[C@@H]([C@H](C)CCCC(C)(C)O)CC[C@@H]12 [Calcifediol]	12.3	115	-109±10	5.82 ± 0.47		-66±31%		14.2 ± 9.57		
Oc1cccc(Nc2ccccc2)c1 [Compound 3-Hydroxy-N-phenylaniline]	35.5	110	-110±13	28.5 ± 6.04	inactive	inactive				
C[C@@H]1C[C@H]2[C@@H]3CCC4=CC(=O)C=C[C@]4(C)[C@@]3(Cl)[C@@H](O)C[C@]2(C)[C@@]1(OC(=O)c1ccco1)C(=O)CCl [Mometasone furoate]	8.3	71	-101±23			-21±0%	11.8 ± 0.8	14 ± 1.14		
CC(O)(c1ccc(Cl)cc1)c1ccc(Cl)cc1 [Chlorfenethol]	12.6	100	-110±19	26.3 ± 7.53		-90±2%		18.9 ± 5.35		
O=C(Nc1cccc(C(F)(F)F)c1)c1cc(Br)cc(Br)c1O [fluorosalan]		100	-104±5			-74±9%	0.24 ± 0.09		0.19	0.42
OCc1c2ccccc2cc2ccccc12 [Compound 9-Anthracenemethanol]	19.9	88	-104±23	34.5 ± 11.5		-68±25%		21.7 ± 15.7		
CCCCCCCCCCCCCC[n+]1ccccc1 [Tetradecylpyridinium bromide]	17.8	102	-76±21			-99±17%	22.5 ± 4.1	33.5 ± 2.73		
Cc1nnc2n1-c1sc(CCc3ccc(CC(C)C)cc3)cc1C(c1ccccc1Cl)=NC2C (centres unmarked) [Israpafant]	27.5	108				-55±10%	22 ± 1.49	23.5 ± 5.67		
CC(C)(C)c1ccc(O)c(O)c1 [Compound 4-tert-Butylcatechol]	31.6	90	-103±20	34.3 ± 15	inactive	inactive				
